Like-named read-outs stand apart in the source and are kept apart here.
Molecular target: 11β-HSD1 (Homo sapiens, UniProt P28845)
Assay: biochemical
Conditions: for IC50: IC50 Range, Biological Test Example 1, microsomes from CHO cells overexpressing human 11β-HSD1; for inhibition at 0.1111 µM: read-out: Average % inhibition at 111.1 nM, Biological Test Example 1, 111.1 nM compound
[1] = read-out: Average % inhibition at 100 nM, Biological Test Example 1, 100 nM compound
[2] = read-out: Average % inhibition at 100 nM, Biological Test Example 1, 100 nM

11β-HSD1, sequence (P28845 whole entry): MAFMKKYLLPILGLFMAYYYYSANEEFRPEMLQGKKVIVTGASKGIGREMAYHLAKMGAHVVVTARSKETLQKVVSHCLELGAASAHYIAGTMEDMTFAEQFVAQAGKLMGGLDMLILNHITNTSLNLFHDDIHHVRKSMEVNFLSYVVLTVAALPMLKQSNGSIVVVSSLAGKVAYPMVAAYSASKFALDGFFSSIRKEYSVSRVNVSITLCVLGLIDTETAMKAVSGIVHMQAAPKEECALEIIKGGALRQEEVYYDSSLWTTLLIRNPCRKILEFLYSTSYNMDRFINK

Compound	IC50 [nM]	inhibition at 0.1 µM [1] [%]	inhibition at 0.1 µM [2] [%]	inhibition at 0.1111 µM [%]	inhibition at 0.1 µM (read-out: Average % inhibition at 100 nM) [%]
CC(C)C1(CCCO)CCN([C@@H](C)c2ccc(-c3ccc(F)cc3F)cc2)C(=O)O1 (single isomer, unassigned) [EXAMPLE 212 Isomer 1]	< 100	96.8	–	–	–
C=CC[C@]1(c2ccc(F)cc2)CCN([C@@H](C)c2ccc(C#N)cc2)C(=O)O1 [EXAMPLE 192, 4-((S)-1-((R)-6-allyl-6-(4-fluorophenyl)-2-oxo-1,3-oxazinan-3-yl)ethyl)benzonitrile]	< 100	70.7	–	–	–
C[C@@H](c1cccc(C(F)(F)F)c1)N1CC[C@](CCCO)(c2ccc(F)cc2)OC1=O [EXAMPLE 293, (R)-6-(4-fluorophenyl)-6-(3-hydroxypropyl)-3-((S)-1-(3-(trifluoromethyl)phenyl)ethyl)-1,3-oxazinan-2-one]	< 100	94	–	–	–
C=CC[C@]1(c2ccc(F)cc2)CCN([C@@H](C)c2ccc(Cl)c(F)c2)C(=O)O1 (single isomer, unassigned) [EXAMPLE 497 Isomer 2]	< 100	–	–	–	–
CC(=O)NC(C)(C)C[C@]1(c2ccc(F)cc2)CCN([C@@H](C)c2ccc(Br)cc2)C(=O)O1 [EXAMPLE 626, N-(1-((S)-3-((S)-1-(4-bromophenyl)ethyl)-6-(4-fluorophenyl)-2-oxo-1,3-oxazinan-6-yl)-2-methylpropan-2-yl)acetamide]	< 100	–	94.8	–	–
O=C1OC(CCO)(c2ccccc2)CCN1c1cccc(-c2ccc(F)cc2Cl)n1 (centres unmarked) [EXAMPLE 116, 3-(6-(2-chloro-4-fluorophenyl)pyridin-2-yl)-6-(2-hydroxyethyl)-6-phenyl-1,3-oxazinan-2-one]	< 100	–	–	97.6	–
CC1(c2ccccc2)CCN(c2nc(-c3ccccc3)cs2)C(=O)O1 (centres unmarked) [EXAMPLE 121, 6-methyl-6-phenyl-3-(4-phenylthiazol-2-yl)-1,3-oxazinan-2-one]	100 to 1000	–	–	34.2	–
C[C@@H](c1ccc(-c2ccccc2)cc1)N1CC[C@](CCO)(c2ccccc2)OC1=O [EXAMPLE 489, (S)-3-((S)-1-(biphenyl-4-yl)ethyl)-6-(2-hydroxyethyl)-6-phenyl-1,3-oxazinan-2-one]	< 100	–	98.3	–	–
C[C@@H](C1CCCCC1)N1CC[C@](CCC(N)=O)(c2ccc(F)cc2)OC1=O [EXAMPLE 317, 3-((R)-3-((S)-1-cyclohexylethyl)-6-(4-fluorophenyl)-2-oxo-1,3-oxazinan-6-yl)propanamide]	< 100	–	87.5	–	–
C=CC[C@@]1(c2ccc(F)cc2)CCN([C@H](C)c2ccc(Cl)c(F)c2)C(=O)O1 (single isomer, unassigned) [EXAMPLE 497 Isomer 3]	> 100	–	–	–	–
C[C@@H](c1ccc(F)cc1)N1CC[C@](CCC(N)=O)(c2ccccc2)OC1=O [EXAMPLE 415, 3-((R)-3-((S)-1-(4-fluorophenyl)ethyl)-2-oxo-6-phenyl-1,3-oxazinan-6-yl)propanamide]	< 100	–	87.6	–	–
O=C1OC(CCCO)(c2ccc(F)cc2)CCN1Cc1c(Cl)cccc1Cl (centres unmarked) [EXAMPLE 347, 3-(2,6-dichlorobenzyl)-6-(4-fluorophenyl)-6-(3-hydroxypropyl)-1,3-oxazinan-2-one]	< 100	–	96	–	–
O=C1OC(CCCO)(c2ccc(F)cc2)CCN1Cc1ccc(Cl)cc1Cl (centres unmarked) [EXAMPLE 343, 3-(2,4-dichlorobenzyl)-6-(4-fluorophenyl)-6-(3-hydroxypropyl)-1,3-oxazinan-2-one]	< 100	–	–	–	82.3
C[C@@H](c1ccc(Br)cc1)N1CC[C@](CCCN(C)S(C)(=O)=O)(c2ccccc2)OC1=O [EXAMPLE 514, N-(3-((R)-3-((S)-1-(4-bromophenyl)ethyl)-2-oxo-6-phenyl-1,3-oxazinan-6-yl)propyl)-N-methylmethanesulfonamide]	< 100	–	93.1	–	–
C[C@@H](c1ccc(F)cc1)N1CC[C@](CC(C)(C)O)(c2ccccc2)OC1=O [EXAMPLE 413, (S)-3-((S)-1-(4-fluorophenyl)ethyl)-6-(2-hydroxy-2-methylpropyl)-6-phenyl-1,3-oxazinan-2-one]	< 100	–	95.3	–	–
C[C@@H](c1ccc(Br)cc1)N1CC[C@@](C)(c2ccc(F)cc2)OC1=O (single isomer, unassigned) [EXAMPLE 518 Isomer 1]	< 100	–	92.2	–	–
Cc1ccc([C@H](C)N2CC[C@](CCCO)(c3ccc(F)cc3)OC2=O)cn1 [EXAMPLE 367, (R)-6-(4-fluorophenyl)-6-(3-hydroxypropyl)-3-((S)-1-(6-methylpyridin-3-yl)ethyl)-1,3-oxazinan-2-one]	< 100	–	44.8	–	–
CC[C@@H](c1ccc(-c2ccc(F)cc2)cc1)N1CC[C@](CCCO)(c2ccc(F)cc2)OC1=O [EXAMPLE 252, (R)-3-((S)-1-(4′-fluorobiphenyl-4-yl)propyl)-6-(4-fluorophenyl)-6-(3-hydroxypropyl)-1,3-oxazinan-2-one]	< 100	99	–	–	–

Compound	IC50 [nM]	inhibition at 0.1 µM [1] [%]	inhibition at 0.1 µM [2] [%]	inhibition at 0.1111 µM [%]	inhibition at 0.1 µM (read-out: Average % inhibition at 100 nM) [%]
C[C@@H](c1cccc(Br)c1)N1CC[C@](CCC(C)(C)O)(c2ccc(F)cc2)OC1=O [EXAMPLE 357, (R)-3-((S)-1-(3-bromophenyl)ethyl)-6-(4-fluorophenyl)-6-(3-hydroxy-3-methylbutyl)-1,3-oxazinan-2-one]	< 100	–	60.7	–	–
CC1(c2cccc(Cl)c2)CCN(c2cccc(-c3ccccc3)c2)C(=O)O1 (centres unmarked) [EXAMPLE 79, 3-(biphenyl-3-yl)-6-(3-chlorophenyl)-6-methyl-1,3-oxazinan-2-one]	< 100	–	–	75.3	–
CC1(c2ccccc2)CCN(c2cccc(-c3cccc(-c4nnn[nH]4)c3)c2)C(=O)O1 (centres unmarked) [EXAMPLE 49, 3-(3′-(1H-tetrazol-5-yl)biphenyl-3-yl)-6-methyl-6-phenyl-1,3-oxazinan-2-one]	100 to 1000	–	–	15.4	–
CC(=O)C[C@]1(c2ccc(F)cc2)CCN([C@@H](C)c2ccc(OC(F)F)cc2)C(=O)O1 [EXAMPLE 321, (S)-3-((S)-1-(4-(difluoromethoxy)phenyl)ethyl)-6-(4-fluorophenyl)-6-(2-oxopropyl)-1,3-oxazinan-2-one]	< 100	–	96.1	–	–
CC(C[C@]1(c2ccc(F)cc2)CCN([C@@H](C)c2ccc(Br)cc2)C(=O)O1)C(N)=O (single isomer, unassigned) [EXAMPLE 523 Isomer 1]	< 100	–	94.5	–	–
CC(O)C[C@]1(c2ccccc2)CCN([C@@H](C)c2ccc(-c3ccc(F)cc3)cc2)C(=O)O1 (single isomer, unassigned) [EXAMPLE 224 Isomer 1]	< 100	100	–	–	–
C[C@@H](c1ccc(F)cc1)N1CC[C@](CCCO)(c2ccccc2)OC1=O [EXAMPLE 414, (R)-3-((S)-1-(4-fluorophenyl)ethyl)-6-(3-hydroxypropyl)-6-phenyl-1,3-oxazinan-2-one]	< 100	–	94.4	–	–
C[C@@H](c1ccc(Cl)cc1)N1CC[C@](CCC(N)=O)(c2ccccc2)OC1=O [EXAMPLE 287, 3-((R)-3-((S)-1-(4-chlorophenyl)ethyl)-2-oxo-6-phenyl-1,3-oxazinan-6-yl)propanamide]	< 100	89.8	–	–	–
CC1(c2ccccc2)CCN(c2cccc(-c3ccc(O)cc3)c2)C(=O)O1 (centres unmarked) [EXAMPLE 43, 3-(4′-hydroxybiphenyl-3-yl)-6-methyl-6-phenyl-1,3-oxazinan-2-one]	< 100	–	–	77.7	–
C[C@@H](c1ccc(-c2ccc(F)cc2)cc1)N1CC[C@](CCCO)(c2cccs2)OC1=O [EXAMPLE 232, (R)-3-((S)-1-(4′-fluorobiphenyl-4-yl)ethyl)-6-(3-hydroxypropyl)-6-(thiophen-2-yl)-1,3-oxazinan-2-one]	< 100	96.9	–	–	–
C[C@@H](c1ccc(C(F)(F)F)cc1)N1CC[C@](CCO)(c2ccccc2)OC1=O [EXAMPLE 399, (S)-6-(2-hydroxyethyl)-6-phenyl-3-((S)-1-(4-(trifluoromethyl)phenyl)ethyl)-1,3-oxazinan-2-one]	< 100	–	97.9	–	–
CC(=O)N(C)CC[C@]1(c2ccccc2)CCN([C@@H](C)c2ccc(Br)cc2)C(=O)O1 [EXAMPLE 586, N-(2-((R)-3-((S)-1-(4-bromophenyl)ethyl)-2-oxo-6-phenyl-1,3-oxazinan-6-yl)ethyl)-N-methylacetamide]	< 100	–	98	–	–
C[C@@H](c1ccc(C(F)(F)F)cc1)N1CC[C@](CCCO)(c2ccc(F)cc2)OC1=O [EXAMPLE 294, (R)-6-(4-fluorophenyl)-6-(3-hydroxypropyl)-3-((S)-1-(4-(trifluoromethyl)phenyl)ethyl)-1,3-oxazinan-2-one]	< 100	97.2	–	–	–
CC1(c2ccccc2)CCN(Cc2cccc(Br)c2)C(=O)O1 (centres unmarked) [EXAMPLE 71, 3-(3-bromobenzyl)-6-methyl-6-phenyl-1,3-oxazinan-2-one]	100 to 1000	–	–	–	–
O=C1OC(CCO)(c2ccc(F)cc2)CCN1c1cccc(-c2ccc(F)cc2)n1 (centres unmarked) [EXAMPLE 103, 6-(4-fluorophenyl)-3-(6-(4-fluorophenyl)pyridin-2-yl)-6-(2-hydroxyethyl)-1,3-oxazinan-2-one]	< 100	–	–	86.9	–
C[C@@H](c1ccc(Cl)cc1)N1CC[C@](CCO)(c2ccc(F)cc2)OC1=O [EXAMPLE 380, (S)-3-((S)-1-(4-chlorophenyl)ethyl)-6-(4-fluorophenyl)-6-(2-hydroxyethyl)-1,3-oxazinan-2-one]	< 100	–	97.2	–	–
C[C@@H](c1ccc(-c2ccc(F)cc2)cc1)N1CC[C@](CC(C)(C)C(N)=O)(c2ccccc2)OC1=O [EXAMPLE 568, 3-((R)-3-((S)-1-(4′-fluorobiphenyl-4-yl)ethyl)-2-oxo-6-phenyl-1,3-oxazinan-6-yl)-2,2-dimethylpropanamide]	< 100	–	97.7	–	–
Cc1cccc(C2(C)CCN([C@@H](C)c3ccccc3)C(=O)O2)c1 (stereo partly drawn) [EXAMPLE 87, 6-methyl-3-((S)-1-phenylethyl)-6-m-tolyl-1,3-oxazinan-2-one]	< 100	–	–	–	–

Source: patent US8575156B2, “Cyclic inhibitors of 11β-hydroxysteroid dehydrogenase 1” (Vitae Pharmaceuticals, Inc., priority 2007, dated 2013)
